Where only a bound is given, the exact number is not on record here.

For orientation: inhibition means the drop in the measured response relative to a control, in per cent.

Common to all, as to assay type: cell-based
One assay deals with IFNγ. In words: LPS-induced human whole blood, IFNγ release. Conditions: mean of donors; for IFNγ (% inhibition) / inhibition at 3 µM: 3000 nM; for IFNγ (% inhibition): 3 µM; for inhibition at 0.00137174 µM / inhibition at 0.00411523 µM / inhibition at 0.0123457 µM / inhibition at 0.037037 µM / inhibition at 0.111111 µM / inhibition at 0.333333 µM / inhibition at 1 µM / inhibition at 3 µM: Homo sapiens; for inhibition at 0.00137174 µM: 1.371742 nM; for inhibition at 0.00411523 µM: 4.115226 nM; for inhibition at 0.0123457 µM: 12.34568 nM; for inhibition at 0.037037 µM: 37.03704 nM; for inhibition at 0.111111 µM: 111.1111 nM; for inhibition at 0.333333 µM: 333.3333 nM; for inhibition at 1 µM: 1000 nM. The method, then: (§1) Venous blood from human donors was collected as 10 ml aliquots in tubes containing sodium heparin (BD Vacutainer from Becton Dickinson and Company, Franklin Lakes, N.Y.). Blood was added to sterile polystyrene round bottom 96-well tissue culture plates (Corning Costar) at 180 Blood was placed in a humidified 37 C incubator with 5% CO2 while compounds were prepared (nearly 60 minutes).
(§2) Compounds were prepared from 10 mM stock solutions in dimethylsulfoxide (DMSO, Sigma-Aldrich). Stock compound was diluted in DMSO to give appropriate starting concentration then diluted serially 1/3 in DMSO (i.e. 15 μl compound+30 μl DMSO), followed by diluting each serial dilution 1/167 into vehicle solution (2% DMSO in phosphate buffered saline (Dulbecco's Phosphate Buffered Saline without calcium chloride without magnesium chloride, Invitrogen Corporation, Carlsbad Calif.)). Compound or vehicle was added to blood in 10 μl aliquots as triplicates, omitting the outside wells to minimize possible edge effects. The final highest concentration of each compound in the assay ranged from 3 to 0.3 μM. Final DMSO concentration in the assay was 0.1%. The plate containing the samples was gently vortexed to mix and replaced in the incubator. LPS stock (E. coli serotype 0111:B4, Sigma-Aldrich), stored in aliquots of 100 μg/ml in RPMI at −20° C., was diluted […] in RPMI to make a working stock solution. After 60 minutes of incubation, 10 μl of the prepared LPS working stock was added to the blood to a final concentration of 100 ng/ml. Wells to be used as negative control received RPMI media with no LPS. The plate was again gently vortexed and the plates incubated overnight for 22 hours. Following incubation, the blood was centrifuged at 1500×g for 5 minutes and the plasma removed to either freeze at −20° C. or assay for cytokine release.
(§3) IL-1β, IFNγ and TNFα protein levels were measured using Meso Scale assay kits (Meso Scale Discovery, Gaithersburg, Md., U.S.A.). Reagents were allowed to come to room temperature. Meso Scale plates were blocked with 150 μl of Meso Scale Block B diluent, gently shaking at room temperature for 60 minutes. Plates were washed 3× with wash buffer (PBS, Invitrogen Corporation, with 0.05% Tween-20, Sigma-Aldrich). Calibrators for standard curves were prepared in human plasma/serum assay diluent as a 1/5 serial dilution to achieve final concentrations ranging from 50000 pg/ml to 3.2 pg/ml. Samples were added at 10 to 20 μl/well and calibrators were added at 20 μl/well then incubated at room temperature with gentle shaking for 2 hours. Plates were again washed 3× with wash buffer. Detection antibody was diluted in human plasma/serum antibody diluent to 1 μg/ml and added to the plate at 20 μl/well. Plates were incubated as before for 2 hours and washed again. Read Buffer T (4×) was diluted 1:1 with mqH20 to 2× concentration and 150 μl added to each well. Plates were read on the SECTOR Imager 6000 (Meso Scale Discovery) to generate raw signal values.
(§4) Individual sample signal values were compared to positive and negative controls (vehicle treated blood with LPS and vehicle treated blood without LPS, respectively) to generate % inhibition. Triplicate values were averaged for each donor. The values for three or four donors were averaged and graphed using 4-parameter fit curves in the LabStats plug-in for the Microsoft Excel application.

The next assay concerns IL-1β. The assay can be described thus: LPS-induced human whole blood, IL-1β release. Conditions: Homo sapiens, mean of donors; for inhibition at 0.00137174 µM: 1.371742 nM; for inhibition at 0.00411523 µM: 4.115226 nM; for inhibition at 0.0123457 µM: 12.34568 nM; for inhibition at 0.037037 µM: 37.03704 nM; for inhibition at 0.111111 µM: 111.1111 nM; for inhibition at 0.333333 µM: 333.3333 nM; for inhibition at 1 µM: 1000 nM. The method, then: as §1, §2, §3, §4

A further assay has as its system TNFα. In words: LPS-induced human whole blood, TNFα release. Conditions: Homo sapiens, mean of donors; for inhibition at 0.00137174 µM: 1.371742 nM; for inhibition at 0.00411523 µM: 4.115226 nM; for inhibition at 0.0123457 µM: 12.34568 nM; for inhibition at 0.037037 µM: 37.03704 nM; for inhibition at 0.111111 µM: 111.1111 nM; for inhibition at 0.333333 µM: 333.3333 nM; for inhibition at 1 µM: 1000 nM. The procedure:
as §1, §2, §3, §4

On to `Oc1ccc2c(c1)CC[C@@H]1C[C@@](O)(c3ccccc3)[C@@H](O)C[C@@]21Cc1ccccc1` [Comparator F, (2R,3S,4aR,10aR)-4a-Benzyl-2-phenyl-1,2,3,4,4a,9,10,10a-octahydrophenanthrene-2,3,7-triol], for which, in the assay on IFNγ, the “IFNγ (% inhibition)” value is given as 21.96%, the inhibition at 0.00137174 µM was -12.4%, the inhibition at 0.00411523 µM was -15.3% and the inhibition at 0.0123457 µM was -8.35%. Besides, in the assay on IFNγ, the inhibition at 0.037037 µM was -13.4%, the inhibition at 0.111111 µM was -4.6%, the inhibition at 0.333333 µM is -3.3% and the inhibition at 1 µM worked out at 14.6%. Moreover, the inhibition at 3 µM in the assay on IFNγ is 22%. Besides, in the assay with IL-1β, the inhibition at 0.00137174 µM is -4.16%, the inhibition at 0.00411523 µM was -6.16%, the inhibition at 0.0123457 µM is -5.49% and the inhibition at 0.037037 µM was -6.15%. Further, in the assay on IL-1β, the inhibition at 0.111111 µM was -4.59%, the inhibition at 0.333333 µM was -2.45% and the inhibition at 1 µM amounted to 0.22%. Besides, in the assay with TNFα, the inhibition at 0.00137174 µM is -2.51%, the inhibition at 0.00411523 µM is -8.12%, the inhibition at 0.0123457 µM is -6.79% and the inhibition at 0.037037 µM was -4.23%. In the assay with TNFα, the inhibition at 0.111111 µM was -6.35%, the inhibition at 0.333333 µM was -3.43% and the inhibition at 1 µM was determined as 4.14%.
In the case of `Cc1ncccc1COc1ccc2c(c1)CC[C@@H]1C[C@@](O)(c3ccccc3)[C@@H](O)C[C@@]21Cc1ccccc1` [Comparator G, (2R,3S,4aR,10aR)-4a-Benzyl-7(2-methyulpyridin-3-ylmethoxy)-2-phenyl-1,2,3,4,4a,9,10,10a-octahydrophenanthrene-2,3 diol], in the assay on IFNγ, the “IFNγ (% inhibition)” value was 41.3796%, the inhibition at 0.00137174 µM worked out at 16.7%, the inhibition at 0.00411523 µM was 12.8% and the inhibition at 0.0123457 µM is -9.15%. Besides, in the assay on IFNγ, the inhibition at 0.037037 µM is -2.58%, the inhibition at 0.111111 µM amounted to 2.66%, the inhibition at 0.333333 µM was 2.02% and the inhibition at 1 µM was 13.2%. Also, the inhibition at 3 µM in the assay on IFNγ came out at 41%. In the assay on IL-1β, the inhibition at 0.00137174 µM was -0.115%, the inhibition at 0.00411523 µM was -2.64%, the inhibition at 0.0123457 µM is -7.52% and the inhibition at 0.037037 µM is -7.35%. Further, in the assay on IL-1β, the inhibition at 0.111111 µM is -5.37%, the inhibition at 0.333333 µM is -6.75% and the inhibition at 1 µM is -1.19%. Moreover, the inhibition at 3 µM in the assay on IL-1β (3000 nM) was below 20%. For the same compound, in the assay on TNFα, the inhibition at 0.00137174 µM is 3.22%, the inhibition at 0.00411523 µM is -2.9%, the inhibition at 0.0123457 µM was -14% and the inhibition at 0.037037 µM was -13.9%. For the same compound, in the assay with TNFα, the inhibition at 0.111111 µM is -8.76%, the inhibition at 0.333333 µM was -13.8% and the inhibition at 1 µM is -8.47%. Further, the inhibition at 3 µM in the assay with TNFα (3000 nM) was below 20%.

These data come from patent US8552035B2, “Phenanthrenone compounds, compositions and methods” (Pfizer Inc., priority 2008, dated 2013).
